# Laboratory results as given in patent publication US20240132513A1, “BENZAZEPINE DERIVATIVES, COMPOSITIONS, AND METHODS FOR TREATING COGNITIVE IMPAIRMENT” (AGENEBIO, INC., priority 2022, published 2024).
# Target: α5β3γ2 GABAA R (Homo sapiens, UniProt P18507+P31644)
# Assay: Binding activity on GABAA R: inhibition of [3H]Ro15-1788 binding, α5 containing receptor
# Conditions: not given
# Method: Tissue culture and Membrane Preparation: The binding was performed on Ltk cells stably expressing GABAA R: […], α2β3γ2, α3β3γ2 and α5β3γ2 (provided by Merck Co., NJ, USA). Cells were seeded in 100 mm culture plates in DMEM/F12 medium containing 10% serum and antibiotics in 5% CO2 and allowed to grow for 1-2 days. GABAAR expression was then induced by dexamethasone as follows: 0.5 μM for 1 day for α5 containing and 2 μM for 3 days for α1, α2 and α3 containing GABAARs. After induction, cells were collected by scraping into Dulbecco's Phosphate buffered saline (DPBS, pH 7.4, Invitrogen, Carlsbad, CA, USA) and centrifuged at 150×g for 10 min. The pellet was washed twice by re-suspension and centrifugation. The cell pellets from at least 5 different preps were combined, suspended in the binding assay buffer (50 mM KH2PO4; 1 mM EDTA; 0.2 M KCl, pH 7.4) and membranes prepared by sonication (3-5 times, 30 sec) using Branson Sonifier 150 (G. Heinmann, Germany). Protein content was determined using BCA assay (Bio-Rad Labs, Reinach, Switzerland) with Bovine Serum Albumin (Sigma Aldrich, St. Louis, MO, USA) as the standard. Aliquots were prepared and stored at −20° C. for further use in binding assays.
# Ligand Binding: Saturation binding curves were obtained by incubating membranes with increasing concentrations (0.01-8 nM) of [^3H]Rol5-1788 (Flumazepil, 75-85 Ci/mmol, PerkinElmer, MA, USA), with nonspecific binding measured in the presence of 10 μM diazepam.
# All binding assays were performed for 1 h at 4° C. in assay buffer. The total assay volume was 0.5 ml containing 0.2 mg/ml protein for α5 and 0.4 mg/ml for α1, α2, and α3 containing GABAAR membranes. Incubations were terminated by filtration through GF/B filters using a 24-Cell Harvestor (Brandel, Gaithersburg, MD, USA) followed by 3 washes with ice-cold assay buffer. Filters were transferred to scintillation vials, 5 ml scintillation liquid added, vortex-mixed and kept in dark. Next day, radioactivity was obtained using a scintillation counter (Beckman Coulter, Brea, CA, USA). All assays were performed in triplicate.
# Data Analyses: Saturation and inhibition curves were obtained using GraphPad Prism software (GraphPad Software, Inc., CA, USA).
# Chain of α5β3γ2 GABAA R (P31644 32-462): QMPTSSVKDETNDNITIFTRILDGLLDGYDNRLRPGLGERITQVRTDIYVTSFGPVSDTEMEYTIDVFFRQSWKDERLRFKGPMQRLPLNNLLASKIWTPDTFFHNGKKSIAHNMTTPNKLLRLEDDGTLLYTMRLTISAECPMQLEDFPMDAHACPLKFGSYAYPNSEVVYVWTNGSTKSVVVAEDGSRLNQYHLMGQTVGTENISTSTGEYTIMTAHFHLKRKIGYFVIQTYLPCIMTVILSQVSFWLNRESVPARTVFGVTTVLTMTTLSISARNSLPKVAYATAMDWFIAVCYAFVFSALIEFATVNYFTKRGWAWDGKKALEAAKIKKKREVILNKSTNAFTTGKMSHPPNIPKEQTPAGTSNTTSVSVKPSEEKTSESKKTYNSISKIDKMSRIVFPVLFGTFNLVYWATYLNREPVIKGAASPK
# Chain of α5β3γ2 GABAA R (P28472 26-473 partner): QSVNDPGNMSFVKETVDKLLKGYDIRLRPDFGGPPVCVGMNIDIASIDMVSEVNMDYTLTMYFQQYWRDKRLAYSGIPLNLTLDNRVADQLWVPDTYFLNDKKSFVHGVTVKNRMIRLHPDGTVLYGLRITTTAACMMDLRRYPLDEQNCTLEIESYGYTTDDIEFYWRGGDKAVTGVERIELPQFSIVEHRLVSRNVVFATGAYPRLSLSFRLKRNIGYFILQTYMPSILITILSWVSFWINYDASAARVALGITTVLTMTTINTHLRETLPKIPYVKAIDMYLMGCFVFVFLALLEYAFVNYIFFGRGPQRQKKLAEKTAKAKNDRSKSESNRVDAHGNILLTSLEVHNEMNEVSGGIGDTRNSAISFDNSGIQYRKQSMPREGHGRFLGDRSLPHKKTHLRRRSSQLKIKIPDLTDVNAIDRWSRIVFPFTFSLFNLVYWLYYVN
# Chain of α5β3γ2 GABAA R (P18507 40-475): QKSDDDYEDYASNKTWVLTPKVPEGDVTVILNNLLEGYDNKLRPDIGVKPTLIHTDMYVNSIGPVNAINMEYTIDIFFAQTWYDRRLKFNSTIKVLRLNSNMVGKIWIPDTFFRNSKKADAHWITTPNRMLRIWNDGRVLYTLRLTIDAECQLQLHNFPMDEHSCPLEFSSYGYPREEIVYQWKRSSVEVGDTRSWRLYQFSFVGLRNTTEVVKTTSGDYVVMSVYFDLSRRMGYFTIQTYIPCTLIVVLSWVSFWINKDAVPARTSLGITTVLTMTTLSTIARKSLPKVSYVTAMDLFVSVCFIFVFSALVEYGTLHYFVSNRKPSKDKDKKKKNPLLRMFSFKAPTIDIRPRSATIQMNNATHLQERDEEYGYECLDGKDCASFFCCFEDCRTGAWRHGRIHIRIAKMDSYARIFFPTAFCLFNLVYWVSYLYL
row,Structure (SMILES),Ki [µM]
1,Cn1cc2c(n1)-c1cc(Cl)ccc1-n1cnc(-c3nc(CN4CCCC4)co3)c1C2 [Compound 345],< 0.1
2,Cn1cc2c(n1)-c1cc(Cl)ccc1-n1cnc(-c3noc(CCN4CCCC4)n3)c1C2 [Compound 385],< 0.1
3,COc1ccc2c(c1)-c1nn(C)cc1Cc1c(-c3noc(C(C)(C)O)n3)ncn1-2 [Compound 388],< 0.1
4,CC(C)n1cc2c(n1)-c1cc(Cl)ccc1-n1cnc(-c3cnn(Cc4ccccc4)c3)c1C2 [Compound 165],0.1 to 1
5,CCn1cc2c(n1)-c1cc(Cl)ccc1-n1cnc(-c3noc(CN(C)C)n3)c1C2 [Compound 349],< 0.1
6,COc1ccc2c(c1)-c1c(cnn1CC1CCOC1)Cc1c(-c3noc(C(C)(C)OC)n3)ncn1-2 (centres unmarked) [Compound 375],< 0.1
7,COc1ccc2c(c1)-c1nn(C)cc1Cc1c(-c3nnc(C4CCOC4)o3)ncn1-2 (centres unmarked) [Compound 291],0.1 to 1
8,COCCOCc1coc(-c2ncn3c2Cc2cn(C)nc2-c2cc(OC)ccc2-3)n1 [Compound 272],< 0.1
9,COc1ccc2c(c1)-c1[nH]ncc1Cc1c(C#Cc3ccc(OC)nc3)ncn1-2 [Compound 38],< 0.1
10,CCOC1(c2nc(-c3ncn4c3Cc3cn(C)nc3-c3cc(OC)ccc3-4)no2)CC1 [Compound 357],< 0.1
11,CC(C)c1noc(-c2ncn3c2Cc2cn(C4CCOC4)nc2-c2cc(Cl)ccc2-3)n1 (centres unmarked) [Compound 199],< 0.1
12,CCOC(=O)c1cnc2n1CC(=O)N(C)c1cc(Cl)ccc1-2 [Compound 28],> 1
13,COc1ccc2c(c1)-c1[nH]ncc1Cc1c(C3=N[C@H](c4ccc(Cl)cc4)CO3)ncn1-2 [Compound 24],< 0.1
14,COc1ccc2c(c1)-c1[nH]ncc1Cc1c(-c3cnn(Cc4ccccc4)c3)ncn1-2 [Compound 72],< 0.1
15,Cn1ncc2c1-c1cc(Cl)ccc1-n1cnc(C#CC(C)(C)C)c1C2 [Compound 102],< 0.1
16,CCOC(=O)c1cnc2n1Cc1nncn1-c1cc(Cl)ccc1-2 [Compound 56],< 0.1
17,COc1ccc2c(c1)-c1nn(Cc3ccccc3F)cc1Cc1c(-c3cnn(-c4ccccc4)c3)ncn1-2 [Compound 75],0.1 to 1
18,COCCn1cc2c(n1)-c1cc(OC)ccc1-n1cnc(-c3noc(C4(OC)CC4)n3)c1C2 [Compound 339],< 0.1
19,CC(=O)N(C)Cc1coc(-c2ncn3c2Cc2cn(C)nc2-c2cc(Cl)ccc2-3)n1 [Compound 358],< 0.1
20,CCn1cc2c(n1)-c1cc(OC)ccc1-n1cnc(-c3nc(C4CC4)no3)c1C2 [Compound 152],< 0.1
21,COc1ccc2c(c1)-c1nn(Cc3ccccc3)cc1Cc1c(-c3nc(C)no3)ncn1-2 [Compound 16],< 0.1
22,COc1ccc2c(c1)-c1nn(C)cc1Cc1c(-c3nnc(COCC(F)(F)F)o3)ncn1-2 [Compound 334],< 0.1
23,COc1ccc2c(c1)-c1nn(C)cc1Cc1c(-c3noc(CN4CCCC4)n3)ncn1-2 [Compound 347],< 0.1
24,COc1ccc2c(c1)-c1nn(CC3CCCO3)cc1Cc1c(-c3noc(C4(OC)CC4)n3)ncn1-2 (centres unmarked) [Compound 323],< 0.1
25,COc1ccc2c(c1)-c1nn(C)cc1Cc1c(-c3nc(CN4CCCC4)co3)ncn1-2 [Compound 270],0.1 to 1

row,Structure (SMILES),Ki [µM]
1,CCn1cc2c(n1)-c1cc(OC)ccc1-n1cnc(-c3nc(C(C)(C)OC)no3)c1C2 [Compound 234],< 0.1
2,COc1ccc2c(c1)-c1nn(C)cc1Cc1c(-c3noc(CN4CCOCC4)n3)ncn1-2 [Compound 348],< 0.1
3,COCc1nnc(-c2ncn3c2Cc2cn(C)nc2-c2cc(OC)ccc2-3)o1 [Compound 326],< 0.1
4,COc1ccc2c(c1)-c1c(cnn1C)Cc1c(-c3noc(C4(OC)CC4)n3)ncn1-2 [Compound 204],< 0.1
5,COc1ccc2c(c1)-c1nn(Cc3ccccc3F)cc1Cc1c(-c3nc(C(C)C)no3)ncn1-2 [Compound 43],< 0.1
6,COc1ccc2c(c1)-c1c(cnn1C)Cc1c(-c3nc(C(C)C)no3)ncn1-2 [Compound 47],0.1 to 1
7,COc1ccc2c(c1)-c1nn(CCOC(F)(F)F)cc1Cc1c(-c3noc(C(C)(C)OC)n3)ncn1-2 [Compound 343],< 0.1
8,COc1ccc2c(c1)-c1nn(C)cc1Cc1c(-c3nc(CN4CCOCC4)no3)ncn1-2 [Compound 328],< 0.1
9,COc1ccc2c(c1)-c1nn(Cc3ccccc3F)cc1Cc1c(-c3cnn(Cc4ccccc4)c3)ncn1-2 [Compound 77],< 0.1
10,COc1ccc2c(c1)-c1nn(CC3CCOC3)cc1Cc1c(-c3nc(C(F)(F)F)no3)ncn1-2 (centres unmarked) [Compound 265],< 0.1
11,FC(F)(F)c1noc(-c2ncn3c2Cc2cn(CC4CCCO4)nc2-c2cc(Cl)ccc2-3)n1 (centres unmarked) [Compound 227],< 0.1
12,COc1ccc2c(c1)-c1n[nH]cc1Cc1c(-c3noc(C4(F)CC4)n3)ncn1-2 [Compound 191],< 0.1
13,COc1ccc2c(c1)-c1[nH]ncc1Cc1c(-c3cnco3)ncn1-2 [Compound 95],< 0.1
14,COc1ccc2c(c1)-c1nn(C)cc1Cc1c(-c3nc(CN4CCOCC4)co3)ncn1-2 [Compound 271],< 0.1
15,COc1ccc2c(c1)-c1nn(C)cc1Cc1c(-c3noc(C4(F)CCOC4)n3)ncn1-2 (centres unmarked) [Compound 356],< 0.1
16,COc1ccc2c(c1)-c1nn(CCOC(F)(F)F)cc1Cc1c(-c3noc(C4CCOCC4)n3)ncn1-2 [Compound 327],< 0.1
17,COc1ccc2c(c1)-c1c(cnn1CC1CC1)Cc1c(-c3nc(C(F)(F)F)no3)ncn1-2 [Compound 117],< 0.1
18,COc1ccc2c(c1)-c1nn(C)cc1Cc1c(-c3noc(COC(F)(F)F)n3)ncn1-2 [Compound 359],< 0.1
19,CCn1cc2c(n1)-c1cc(Cl)ccc1-n1cnc(C3=N[C@@H](C(C)C)CO3)c1C2 [Compound 180],< 0.1
20,CN(C)Cc1noc(-c2ncn3c2Cc2cn(C)nc2-c2cc(Cl)ccc2-3)n1 [Compound 240],< 0.1
21,Cn1ncc2c1-c1cc(Cl)ccc1-n1cnc(-c3cnn(Cc4ccccc4)c3)c1C2 [Compound 164],< 0.1
22,COc1ccc2c(c1)-c1nn(C)cc1Cc1c(-c3noc(C4(OC)CCOC4)n3)ncn1-2 (centres unmarked) [Compound 354],< 0.1
23,Clc1ccc2c(c1)-c1[nH]ncc1Cc1c(-c3cnn(-c4ccccc4)c3)ncn1-2 [Compound 60],0.1 to 1
24,COCCc1nc(-c2ncn3c2Cc2cn(C)nc2-c2cc(Cl)ccc2-3)no1 [Compound 387],< 0.1

# Same assay, conditions: ranges of the column heads; [3H]Ro15-1788, Ltk cell membranes
row,Ki [µM],Structure (SMILES)
1,> 1,COc1ccc2c(c1)-c1c(cnn1C)Cc1c(-c3nc(C(C)(C)C)no3)ncn1-2 [Compound 19]
2,> 1,CN1C(=O)Cn2c(C3=N[C@H](c4ccccc4)CO3)cnc2-c2ccc(Cl)cc21 [Compound 29]
3,< 0.1,COc1ccc2c(c1)-c1nn(C)cc1Cc1c(-c3noc(C4(O)CC4)n3)ncn1-2 [Compound 363]
4,< 0.1,COCc1noc(-c2ncn3c2Cc2cn(CC4CCOC4)nc2-c2cc(OC)ccc2-3)n1 (centres unmarked) [Compound 299]
5,< 0.1,COc1ccc2c(c1)-c1[nH]ncc1Cc1c(-c3noc(C(C)(C)C)n3)ncn1-2 [Compound 89]
6,< 0.1,CCn1cc2c(n1)-c1cc(OC)ccc1-n1cnc(-c3noc(C4(OC)CC4)n3)c1C2 [Compound 340]
7,> 1,CC(C)c1noc(-c2cnc3n2CC(=O)Nc2cc(Cl)ccc2-3)n1 [Compound 27]
8,> 1,CN1C(=O)Cn2c(C3=N[C@@H](c4ccccc4)CO3)cnc2-c2ccc(Cl)cc21 [Compound 30]
9,0.1 to 1,COc1ccc2c(c1)-c1c(cnn1C)Cc1c(-c3nc(CN4CCOCC4)no3)ncn1-2 [Compound 329]
10,> 1,COc1ccc2c(c1)-c1[nH]ncc1Cc1c(-c3cn(C)cn3)ncn1-2 [Compound 80]
11,< 0.1,COCCc1nc(-c2ncn3c2Cc2cn(C)nc2-c2cc(OC)ccc2-3)no1 [Compound 342]
12,> 1,CC(C)Cc1noc(-c2ncn3c2Cc2cnoc2-c2cc(Cl)ccc2-3)n1 [Compound 66]
13,< 0.1,Clc1ccc2c(c1)-c1nn(C3CCOC3)cc1Cc1c(-c3cnn(Cc4ccccc4)c3)ncn1-2 (centres unmarked) [Compound 274]
14,< 0.1,COc1ccc2c(c1)-c1nn(C)cc1Cc1c(-c3nc(CN(C(C)=O)C(C)C)co3)ncn1-2 [Compound 381]
15,< 0.1,CCOC(=O)c1ncn2c1Cc1cnoc1-c1cc(OC)ccc1-2 [Compound 40]
16,> 1,COc1ccc2c(c1)-c1oncc1Cc1c(C3=N[C@H](c4ccccc4)CO3)ncn1-2 [Compound 49]

row,Structure (SMILES),Ki [µM]
1,CC(C)c1noc(-c2ncn3c2Cc2cnoc2-c2cc(Cl)ccc2-3)n1 [Compound 59],> 1
2,CC(C)c1noc(-c2cnc3n2Cc2nncn2-c2cc(Cl)ccc2-3)n1 [Compound 58],> 1
3,Cc1noc(-c2cnc3n2CC(=O)N(C)c2cc(Cl)ccc2-3)n1 [Compound 32],> 1
